Earlier results, collected in article PMC9851200, “Multiparameter phenotypic screening for endogenous TFEB and TFE3 translocation identifies novel chemical series modulating lysosome function” (Autophagy, 2022).

Tests used:
Parameters in all cases: method as in original PKIS2 published data
[1] = biological target: T1, kinases (KINOMEscan panel) (Homo sapiens, UniProt Q13976); settings: kinase PRKG1; Published KINOMEscan; ref original PKIS2 published data; cited from earlier work
T1 sequence (Q13976 1-671): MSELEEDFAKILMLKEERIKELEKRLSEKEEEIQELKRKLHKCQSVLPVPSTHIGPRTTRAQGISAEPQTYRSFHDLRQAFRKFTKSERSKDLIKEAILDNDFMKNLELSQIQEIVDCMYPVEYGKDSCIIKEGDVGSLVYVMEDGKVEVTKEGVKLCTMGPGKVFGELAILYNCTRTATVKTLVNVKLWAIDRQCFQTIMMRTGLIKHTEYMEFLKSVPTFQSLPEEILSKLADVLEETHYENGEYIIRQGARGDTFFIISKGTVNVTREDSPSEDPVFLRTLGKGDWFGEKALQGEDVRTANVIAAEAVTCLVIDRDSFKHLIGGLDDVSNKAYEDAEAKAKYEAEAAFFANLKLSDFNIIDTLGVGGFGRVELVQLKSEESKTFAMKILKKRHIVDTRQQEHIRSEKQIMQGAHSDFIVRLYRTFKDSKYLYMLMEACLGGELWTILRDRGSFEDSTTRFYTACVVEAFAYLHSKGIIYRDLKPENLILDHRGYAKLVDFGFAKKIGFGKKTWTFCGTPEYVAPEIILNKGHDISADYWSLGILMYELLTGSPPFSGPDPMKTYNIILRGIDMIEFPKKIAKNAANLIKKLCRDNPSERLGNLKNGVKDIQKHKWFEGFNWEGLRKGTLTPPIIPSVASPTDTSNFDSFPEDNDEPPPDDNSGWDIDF

[2] = biological target: kinases (KINOMEscan panel) (Homo sapiens, UniProt Q2M2I8); settings: AAK1; Published KINOMEscan; ref original PKIS2 published data; cited from earlier work
[3] = biological target: T2, kinases (KINOMEscan panel) (Homo sapiens, UniProt Q8IWQ3); settings: kinase BRSK2; Published KINOMEscan; ref original PKIS2 published data; cited from earlier work
T2 sequence (Q8IWQ3 1-736): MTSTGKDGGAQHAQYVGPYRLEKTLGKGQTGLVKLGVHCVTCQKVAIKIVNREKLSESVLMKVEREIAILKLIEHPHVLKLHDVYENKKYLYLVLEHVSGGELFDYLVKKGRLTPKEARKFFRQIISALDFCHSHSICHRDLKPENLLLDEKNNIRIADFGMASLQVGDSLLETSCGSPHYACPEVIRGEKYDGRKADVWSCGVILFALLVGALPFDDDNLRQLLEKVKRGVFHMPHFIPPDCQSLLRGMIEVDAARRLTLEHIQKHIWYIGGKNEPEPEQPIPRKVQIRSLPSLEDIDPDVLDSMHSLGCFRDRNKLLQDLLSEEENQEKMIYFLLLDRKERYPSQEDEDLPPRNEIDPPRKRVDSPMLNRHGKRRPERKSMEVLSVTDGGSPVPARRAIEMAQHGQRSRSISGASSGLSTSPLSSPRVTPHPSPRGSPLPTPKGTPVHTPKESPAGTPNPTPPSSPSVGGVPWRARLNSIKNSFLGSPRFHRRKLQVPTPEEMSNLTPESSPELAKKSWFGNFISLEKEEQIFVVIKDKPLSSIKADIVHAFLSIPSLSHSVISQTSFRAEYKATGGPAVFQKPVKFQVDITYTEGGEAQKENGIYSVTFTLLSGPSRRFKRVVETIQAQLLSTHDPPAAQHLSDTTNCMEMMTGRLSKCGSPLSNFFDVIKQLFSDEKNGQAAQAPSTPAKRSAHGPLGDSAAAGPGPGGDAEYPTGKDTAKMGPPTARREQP

[4] = biological target: kinases (KINOMEscan panel) (Homo sapiens, UniProt P53350); settings: PLK1; Published KINOMEscan; ref original PKIS2 published data; cited from earlier work
[5] = biological target: T3, kinases (KINOMEscan panel) (Homo sapiens, UniProt P29323); settings: EPHB2; Published KINOMEscan; ref original PKIS2 published data; cited from earlier work
T3 sequence (P29323 19-1055): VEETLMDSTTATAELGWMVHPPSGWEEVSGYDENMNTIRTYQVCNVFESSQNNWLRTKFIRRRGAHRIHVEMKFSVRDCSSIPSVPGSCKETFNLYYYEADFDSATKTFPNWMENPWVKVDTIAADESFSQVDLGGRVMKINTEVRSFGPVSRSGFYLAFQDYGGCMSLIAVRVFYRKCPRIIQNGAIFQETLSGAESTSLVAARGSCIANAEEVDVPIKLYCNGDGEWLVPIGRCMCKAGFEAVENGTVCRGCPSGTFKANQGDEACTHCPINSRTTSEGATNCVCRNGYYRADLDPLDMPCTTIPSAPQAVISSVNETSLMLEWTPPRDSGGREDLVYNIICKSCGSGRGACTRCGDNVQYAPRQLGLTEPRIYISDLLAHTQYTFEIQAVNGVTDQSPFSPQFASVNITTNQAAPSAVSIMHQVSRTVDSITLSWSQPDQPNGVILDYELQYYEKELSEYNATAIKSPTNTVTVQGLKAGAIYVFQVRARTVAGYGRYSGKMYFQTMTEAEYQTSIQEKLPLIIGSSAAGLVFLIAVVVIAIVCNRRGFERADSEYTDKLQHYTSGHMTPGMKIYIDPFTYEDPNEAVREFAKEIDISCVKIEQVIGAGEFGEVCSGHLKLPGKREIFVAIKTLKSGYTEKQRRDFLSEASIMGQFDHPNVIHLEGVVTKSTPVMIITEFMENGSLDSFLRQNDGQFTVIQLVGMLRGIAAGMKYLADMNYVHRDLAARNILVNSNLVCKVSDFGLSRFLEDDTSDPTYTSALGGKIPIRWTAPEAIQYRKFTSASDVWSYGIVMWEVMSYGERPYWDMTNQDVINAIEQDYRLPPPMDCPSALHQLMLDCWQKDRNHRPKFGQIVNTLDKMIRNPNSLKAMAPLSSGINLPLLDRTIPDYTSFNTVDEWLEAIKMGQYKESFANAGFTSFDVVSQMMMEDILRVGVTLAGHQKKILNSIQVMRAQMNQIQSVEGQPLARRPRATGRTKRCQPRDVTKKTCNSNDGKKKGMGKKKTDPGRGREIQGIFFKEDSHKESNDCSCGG

[6] = biological target: kinases (KINOMEscan panel) (Homo sapiens, UniProt P32298); settings: kinase GRK4; Published KINOMEscan; ref original PKIS2 published data; cited from earlier work
Sequence of kinases (KINOMEscan panel) (Homo sapiens, UniProt P32298) (P32298 whole entry): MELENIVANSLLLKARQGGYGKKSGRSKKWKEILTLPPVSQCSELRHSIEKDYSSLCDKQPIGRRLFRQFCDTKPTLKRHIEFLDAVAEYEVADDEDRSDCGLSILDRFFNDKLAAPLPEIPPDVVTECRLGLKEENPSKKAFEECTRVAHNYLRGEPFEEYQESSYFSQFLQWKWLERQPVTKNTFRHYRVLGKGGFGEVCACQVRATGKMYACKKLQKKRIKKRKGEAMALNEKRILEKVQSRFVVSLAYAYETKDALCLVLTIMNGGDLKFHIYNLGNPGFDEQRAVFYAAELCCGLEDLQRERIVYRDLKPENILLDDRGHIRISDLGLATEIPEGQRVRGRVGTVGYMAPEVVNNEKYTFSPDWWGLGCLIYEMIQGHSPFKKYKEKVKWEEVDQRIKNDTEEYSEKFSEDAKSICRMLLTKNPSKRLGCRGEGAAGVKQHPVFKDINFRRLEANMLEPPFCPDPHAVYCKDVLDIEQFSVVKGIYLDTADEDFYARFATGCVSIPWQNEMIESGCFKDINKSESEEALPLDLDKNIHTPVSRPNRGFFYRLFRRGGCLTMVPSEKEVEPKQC

Sequence of kinases (KINOMEscan panel) (Homo sapiens, UniProt Q2M2I8) (Q2M2I8 whole entry): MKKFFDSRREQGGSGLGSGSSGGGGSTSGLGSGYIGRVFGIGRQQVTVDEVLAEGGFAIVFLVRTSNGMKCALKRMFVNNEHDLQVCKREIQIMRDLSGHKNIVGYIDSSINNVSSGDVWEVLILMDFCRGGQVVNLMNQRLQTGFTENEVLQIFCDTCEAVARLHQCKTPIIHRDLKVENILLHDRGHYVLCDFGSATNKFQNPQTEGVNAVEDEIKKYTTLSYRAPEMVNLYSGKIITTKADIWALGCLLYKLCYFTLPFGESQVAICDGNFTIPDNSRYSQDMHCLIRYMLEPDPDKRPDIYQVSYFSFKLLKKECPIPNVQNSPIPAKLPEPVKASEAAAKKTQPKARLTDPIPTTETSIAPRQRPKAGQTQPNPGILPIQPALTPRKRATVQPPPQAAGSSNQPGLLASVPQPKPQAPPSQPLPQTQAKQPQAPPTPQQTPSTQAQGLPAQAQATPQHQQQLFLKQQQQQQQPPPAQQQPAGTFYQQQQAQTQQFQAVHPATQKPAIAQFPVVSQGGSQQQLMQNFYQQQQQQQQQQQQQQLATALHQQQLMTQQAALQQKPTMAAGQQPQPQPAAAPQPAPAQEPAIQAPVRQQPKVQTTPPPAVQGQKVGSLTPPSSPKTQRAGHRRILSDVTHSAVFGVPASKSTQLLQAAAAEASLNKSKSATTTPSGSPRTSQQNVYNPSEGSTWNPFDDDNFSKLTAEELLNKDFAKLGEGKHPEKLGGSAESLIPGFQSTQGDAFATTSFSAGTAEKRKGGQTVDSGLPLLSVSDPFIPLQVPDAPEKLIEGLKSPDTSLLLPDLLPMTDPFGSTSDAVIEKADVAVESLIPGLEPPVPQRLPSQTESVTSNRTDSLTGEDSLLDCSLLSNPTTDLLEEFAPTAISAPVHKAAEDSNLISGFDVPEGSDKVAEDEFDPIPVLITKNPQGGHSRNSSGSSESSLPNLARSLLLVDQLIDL
Sequence of kinases (KINOMEscan panel) (Homo sapiens, UniProt P53350) (P53350 whole entry): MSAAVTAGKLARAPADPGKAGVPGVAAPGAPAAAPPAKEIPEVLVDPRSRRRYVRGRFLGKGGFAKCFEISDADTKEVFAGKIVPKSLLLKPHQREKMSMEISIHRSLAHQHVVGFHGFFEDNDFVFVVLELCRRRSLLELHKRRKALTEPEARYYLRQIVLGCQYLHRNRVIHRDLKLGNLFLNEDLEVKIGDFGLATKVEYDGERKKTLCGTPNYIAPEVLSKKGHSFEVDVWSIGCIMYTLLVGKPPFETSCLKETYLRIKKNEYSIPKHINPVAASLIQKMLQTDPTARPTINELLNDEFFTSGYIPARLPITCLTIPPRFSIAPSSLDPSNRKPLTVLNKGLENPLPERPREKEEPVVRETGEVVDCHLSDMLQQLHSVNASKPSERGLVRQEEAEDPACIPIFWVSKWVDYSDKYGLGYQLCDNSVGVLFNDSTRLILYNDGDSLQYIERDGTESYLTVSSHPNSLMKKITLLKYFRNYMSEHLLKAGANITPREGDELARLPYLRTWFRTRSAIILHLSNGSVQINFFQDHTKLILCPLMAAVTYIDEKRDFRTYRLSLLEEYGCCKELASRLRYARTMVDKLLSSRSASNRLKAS

In the case of `Cc1cccc(-c2nc(Nc3ccncc3)c3ccccc3n2)n1` [NK215], the “KINOMEscan PRKG1” value [1] is listed as 7, the “KINOMEscan AAK1” value [2] is listed as 2 and the “KINOMEscan BRSK2” value [3] is listed as 11. The “KINOMEscan PLK1” value [4] was 6, the “KINOMEscan EPHB2” value [5] was 16 and the “KINOMEscan GRK4” value [6] was 0.
